Experimental data from patent US11198699B2 (ALIGOS THERAPEUTICS, INC., priority 2019, dated 2021).

How the values were obtained:
PRMT5/MEP50 [1] = molecular target: T1, PRMT5/MEP50 (Homo sapiens (Human), UniProt O14744); experiment: PRMT5/MEP50 enzyme inhibition assay, Assay 2 (384-well, MALDI mass spectrometry, histone H4 1-21 peptide); assay type: biochemical; details: 1 μM SAM, 0.1 μM histone H4 1-21 peptide, 18-hour incubation at rt
Description: Compounds were tested for inhibition of methyltransferase activity in 384-well plate assay format using mass spectrometry technology. In this enzyme inhibition assay, compounds were tested in a 11-dose IC50 mode with 3-serial dilution, in duplicate, starting at 1, 10, or 100 μM. Reactions were carried out at 1 μM SAM and 0.1 μM histone H4 1-21 peptide as substrates for methyl transfer. Following an 18-hour incubation at rt, the reaction was stopped with 0.5% formic acid. Products of the reaction were captured while unreacted substrates were washed away, prior to MALDI mass spectrometry detection and analysis. Percent enzyme activity was calculated based on no inhibitor DMSO control as 100% activity. EC50 values were determined in GraphPad Prism 8 using the [inhibitor] vs. response—Variable slope (four parameters) function.
(§1) Compounds of Formula (I) show activity in this assay. A value of ‘A’ in the table below indicates an IC50 of <1 nM, a value of ‘B’ indicates an IC50≥1 nM to ≤100 nM, and a value of ‘C’ indicates an IC50 value of >100 nM.

PRMT5/MEP50 [2] = molecular target: T1, PRMT5/MEP50; experiment: PRMT5/MEP50 enzyme inhibition assay, Assay 1 (radioisotope filter binding, 3H-SAM, histone H2A); assay type: biochemical; details: 1 μM 3H-SAM, 5 μM histone H2A, 60 min at 30° C.
Description: Compounds were tested for inhibition of methyltransferase activity in a radioisotope filter binding assay, similar to previously described in A selective inhibitor of PRMT5 with in vivo and in vitro potency in MCL models. Chan-Penebre et al., Nat Chem Biol. (2015) 11(6):432-7. In the standard PRMT5/MEP50 enzyme inhibition assay, compounds were tested in a 10-dose IC50 mode with 3- or 5-fold serial dilution, in singlet, starting at 1, 10, or 100 μM. Control compound, SAH (S-(5′-Adenosyl)-L-homocysteine), was tested in 10-dose IC50 mode with 3-fold serial dilution starting at 100 μM. Reactions were carried out at 1 μM 3H-SAM (PerkinElmer) and 5 μM histone H2A as substrates for methyl transfer. Following a 60 min incubation at 30° C., the reaction was stopped with 20% TCA. Each reaction was spotted on a filter plate (Multiscreen FB Filter plate, Millipore) and washed 5 times in PBS, after which scintillation fluid was added and signal was detected in a scintillation counter. Percent enzyme activity was calculated based on no inhibitor DMSO control as 100% activity. EC50 values were determined in GraphPad Prism 8 using the [inhibitor] vs. response—Variable slope (four parameters) function.
as §1

[3] = test system: A549 lung carcinoma cells; experiment: Cell proliferation assay, A549 (CellTiter-Glo, 7 days); assay type: cell-based; details: A549, 7 days, CellTiter-Glo 2.0
Description: (§2) HepG2 hepatoma cells (ATCC, HB-8065) were maintained in DMEM with high glucose (Lonza, 12-914F) supplemented with 10% fetal bovine serum (FBS; Biowest, S181B-500) and 2 mM L-glutamine (Biowest, X0551-100) at 37° C. and 5% CO2. A549 lung carcinoma cells (ATCC, CCL-185) were maintained in F-12K medium (ThermoFisher 21127030) supplemented with 10% FBS at 37° C. and 5% CO2. Exponentially growing HepG2 or A549 were plated in white, clear-bottom 96-well plates (Corning, 3903) at a cell density of 2000 (HepG2) or 350 (A549) cells per well in 199 μL of HepG2 medium. Next, 1 μL of a 5-fold 9-point dilution series of test compound in DMSO was added to the different wells. Cells were incubated at 37° C. 5% CO2 for 7 days. Cell viability was assessed on day 7 with the CellTiter-Glo 2.0 Cell Viability assay kit (Promega, G9243) to quantify the intracellular amounts of ATP: first, 100 μL of cell culture medium was removed from each well, next 100 μL of CellTiter-Glo® 2.0 Reagent was added and plates were shaken for 2 minutes on an orbital shaker. After 10 minutes stabilization at room temperature, read-out was performed on a ThermoFisher VarioSkan Lux plate reader. Counts were normalized to DMSO control (0% inhibition) and the cytotoxic control (100% inhibition) and EC50 values were determined in GraphPad Prism 8 using the [Agonist] vs. response—Variable slope (four parameters) function.
(§3) As shown by the data of Table 2, compounds of Formula (I) have activity in this assay. A value of ‘A’ in the table below indicates an EC50 of <20 nM, a value of ‘B’ indicates an EC50≥20 nM to <100 nM, a value of ‘C’ indicates an EC50 value of EC50≥100 nM to <1000 nM and a value of ‘D’ indicates an EC50≥1000 nM

HepG2 hepatoma cells = experiment: Cell proliferation assay, HepG2 (CellTiter-Glo, 7 days); assay type: cell-based; details: HepG2, 7 days, CellTiter-Glo 2.0
Description: as §2, §3

T1 sequence (O14744 whole entry): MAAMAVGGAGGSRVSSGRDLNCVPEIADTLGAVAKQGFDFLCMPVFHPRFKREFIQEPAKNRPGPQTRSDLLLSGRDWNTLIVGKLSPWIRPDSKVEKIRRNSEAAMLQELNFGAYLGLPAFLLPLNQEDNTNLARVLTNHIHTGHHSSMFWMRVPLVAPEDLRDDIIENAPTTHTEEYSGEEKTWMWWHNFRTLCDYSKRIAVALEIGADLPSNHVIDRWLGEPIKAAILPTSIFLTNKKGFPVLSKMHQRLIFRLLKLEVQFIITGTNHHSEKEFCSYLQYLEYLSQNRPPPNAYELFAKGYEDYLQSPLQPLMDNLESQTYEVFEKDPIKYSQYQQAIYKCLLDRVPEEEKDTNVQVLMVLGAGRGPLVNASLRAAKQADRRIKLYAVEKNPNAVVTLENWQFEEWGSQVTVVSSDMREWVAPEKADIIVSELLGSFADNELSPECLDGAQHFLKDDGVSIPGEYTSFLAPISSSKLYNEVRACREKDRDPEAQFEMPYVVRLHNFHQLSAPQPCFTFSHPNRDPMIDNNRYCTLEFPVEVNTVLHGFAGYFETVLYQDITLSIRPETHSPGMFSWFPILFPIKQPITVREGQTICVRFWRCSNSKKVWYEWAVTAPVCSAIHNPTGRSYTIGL
T1 sequence (Q9BQA1 whole entry partner): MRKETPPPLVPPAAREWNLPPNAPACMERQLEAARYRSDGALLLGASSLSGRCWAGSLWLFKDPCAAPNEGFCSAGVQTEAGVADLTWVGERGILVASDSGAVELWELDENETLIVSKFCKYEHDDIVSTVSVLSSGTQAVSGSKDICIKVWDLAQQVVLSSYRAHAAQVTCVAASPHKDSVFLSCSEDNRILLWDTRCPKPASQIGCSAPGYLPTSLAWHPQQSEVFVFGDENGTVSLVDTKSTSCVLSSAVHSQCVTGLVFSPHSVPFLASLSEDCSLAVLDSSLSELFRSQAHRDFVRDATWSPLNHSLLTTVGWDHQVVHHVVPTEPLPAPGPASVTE

Structure (SMILES)	IC50 (PRMT5/MEP50 [1])	IC50 (PRMT5/MEP50 [2])	EC50 ([3]; Homo sapiens, A549, 168 h)	EC50 (HepG2 hepatoma cells; Homo sapiens, 168 h)	EC50 [3]	EC50 (HepG2 hepatoma cells)
Nc1nc2cc(OC[C@H]3C[C@@H](n4ccc5c(N)ncnc54)[C@H](F)[C@@H]3O)ccc2cc1Br [Compound 11, (1R,2S,3R,5R)-5-[(2-amino-3-bromo-7-quinolyl)oxymethyl]-3-(4-aminopyrrolo[2,3-d]pyrimidin-7-yl)-2-fluoro-cyclopentanol]	1 to 100 nM	> 100 nM	≥ 1000 nM	100 to 1000 nM		
Nc1ncnc2c1ccn2[C@H]1[C@H](O)[C@H](O)[C@]2(C(O)c3ccc(Cl)c(Cl)c3)C[C@H]12 (single isomer, unassigned) [Compound 8, (1R, 2R, 3S, 4R, 5S)-4-(4-aminopyrrolo[2,3-d]pyrimidin-7-yl)-1-[(S or R)-(3,4-dichlorophenyl)-hydroxy-methyl]bicyclo[3.1.0]hexane-2,3-diol]	> 100 nM	1 to 100 nM			≥ 1000 nM	100 to 1000 nM
C[C@]1(/C=C/c2ccc3cc(Br)c(N)nc3c2)C[C@@H](n2ccc3c(N)ncnc32)[C@H](O)[C@@H]1O [Compound 1]		< 1 nM				
C[C@@H]1[C@H](CCc2ccc3ccc(N)nc3c2)[C@@H](O)[C@@H](O)[C@@H]1n1ccc2c(N)ncnc21 [Compound 6]	1 to 100 nM	1 to 100 nM			≥ 1000 nM	≥ 1000 nM
Nc1ncnc2c1ccn2[C@H]1[C@H](O)[C@H](O)[C@]2(C(O)c3ccc(Cl)c(Cl)c3)C[C@H]12 (single isomer, unassigned) [Compound 7, (1R,2R,3S,4R,5S)-4-(4-aminopyrrolo[2,3-d]pyrimidin-7-yl)-1-[(R or S)-(3,4-dichlorophenyl)-hydroxy-methyl]bicyclo[3.1.0]hexane-2,3-diol]	1 to 100 nM	< 1 nM		100 to 1000 nM	100 to 1000 nM	
Nc1ccc2ccc(CC[C@@]34C[C@@H]3[C@@H](n3ccc5c(N)ncnc53)[C@H](O)[C@@H]4O)cc2n1 [Compound 13, (1R,2R,3S,4R,5S)-4-(4-aminopyrrolo[2,3-d]pyrimidin-7-yl)-1-[2-(2-amino-7-quinolyl)ethyl]bicyclo[3.1.0]hexane-2,3-diol]	< 1 nM	< 1 nM	< 20 nM	< 20 nM		
C=C1[C@@H](n2ccc3c(N)ncnc32)[C@H](O)[C@H](O)[C@H]1CCc1ccc2cc(Br)c(N)nc2c1 [Compound 4]	< 1 nM	< 1 nM			< 20 nM	< 20 nM
Nc1nc2cc(CC[C@@]34C[C@@H]3[C@@H](n3ccc5c(N)ncnc53)[C@H](O)[C@@H]4O)ccc2cc1Br [Compound 2]	< 1 nM	< 1 nM			< 20 nM	< 20 nM
Nc1nc2cc(OC[C@@]3(F)C[C@@H](n4ccc5c(N)ncnc54)[C@H](O)[C@@H]3O)ccc2cc1Br [Compound 9, (1S,2S,3S,5R)-3-[(2-amino-3-bromo-7-quinolyl)oxymethyl]-5-(4-aminopyrrolo[2,3-d]pyrimidin-7-yl)-3-fluoro-cyclopentane-1,2-diol]	< 1 nM	< 1 nM	20 to 100 nM	20 to 100 nM		
C[C@]1(CCc2ccc3cc(C4CC4)c(N)nc3c2)C[C@@H](n2ccc3c(N)ncnc32)[C@H](O)[C@@H]1O [Compound 14, (1S,2R,3S,5R)-3-[2-(2-amino-3-cyclopropyl-7-quinolyl)ethyl]-5-(4-aminopyrrolo[2,3-d]pyrimidin-7-yl)-3-methylcyclopentane-1,2-diol]	< 1 nM	< 1 nM	< 20 nM	< 20 nM		
C[C@H]1[C@H](CCc2ccc3ccc(N)nc3c2)[C@@H](O)[C@@H](O)[C@@H]1n1ccc2c(N)ncnc21 [Compound 5]	< 1 nM	< 1 nM			100 to 1000 nM	100 to 1000 nM
C=C1[C@@H](n2ccc3c(N)ncnc32)[C@H](O)[C@H](O)[C@H]1CCc1ccc2cc(Br)c(Cl)nc2c1 [Compound 3]	> 100 nM	> 100 nM			100 to 1000 nM	100 to 1000 nM
C[C@]1(CCc2ccc3ccc(N)nc3c2)C[C@@H](n2ccc3c(N)ncnc32)[C@H](O)[C@@H]1O [Compound 12, (1S,2R,3S,5R)-5-(4-amino-7H-pyrrolo[2,3-d]pyrimidin-7-yl)-3-(2-(2-aminoquinolin-7-yl)ethyl)-3-methylcyclopentane-1,2-diol]	< 1 nM	< 1 nM	< 20 nM	< 20 nM		
Cc1cc2ccc(CC[C@@]3(C)C[C@@H](n4ccc5c(N)ncnc54)[C@H](O)[C@@H]3O)cc2nc1N [Compound 10, (1S,2R,3S,5R)-3-[2-(2-amino-3-methyl-7-quinolyl)ethyl]-5-(4-aminopyrrolo[2,3-d]pyrimidin-7-yl)-3-methyl-cyclopentane-1,2-diol]	< 1 nM	< 1 nM	< 20 nM	< 20 nM		
